Experimental data from patent US20080306019A1, “Dopamine Receptor Agonists in the Treatment and Prevention of Hiv-Induced Dementia” (priority 2005, published 2008).

Columns and labels:
[1] = test system: ovariectomized female Sprague-Dawley rats; assay: IV cocaine-induced locomotor activity after intra-accumbal Tat (1-72) (Example 14); assay type: in vivo, rat; details: for mean total activity (±SEM): IV cocaine 3.0 mg/kg; for mean TIC (time in center): across days; for TIC, acute (Day 1): acute IV cocaine
From the text: Animals: Sixty-four adult ovariectomized female, Sprague-Dawley rats (70 days old) were obtained from Harlan Laboratories, Inc. (Indianapolis, Ind.). All rats were surgically implanted with an Intracath IV catheter (22 ga, Becton/Dickinson General Medical Corp., Grand Prarie, Tex.), which was used as a SC, dorsally implanted port for chronic IV injections. The subcutaneous implantable access port for rats was developed and described by Mactutus et al. (1994). Ovariectomized rats were used because estrogen is protective against the neurotoxic effects of Tat (Wallace et al., 2006). Serial ovariectomy and indwelling jugular catheter surgeries occurred for all rats during the same procedure. Upon arrival at the animal care facilities, rats were placed in quarantine for 7 days, and then transferred to the colony. Animals were pair housed throughout the experiment and the catheters were flushed daily with 0.2 ml of heparinized (2.5%) saline. Rodent food (Pro-Lab Rat, Mouse Hamster Chow #3000) and water were provided ad lib. The colony was maintained at 21±2° C., 50%±10% relative humidity and a 12L: 12D cycle with lights on at 0700 h (EST).
Locomotor activity: Habituation: Rats in the vehicle-saline (VEH-SAL), Tat-saline (Tat-SAL), vehicle-cocaine (VEH-COC), and Tat-cocaine (TAT-COC) groups were habituated to the locomotor activity chambers for two 60-min sessions, one/day. Twenty four hours after the second habituation session, all rats were injected with IV saline and placed into the activity chambers for 30-min to measure baseline activity. The activity monitors were square (40×40 cm) open-field chambers (Hamilton-Kinder Inc., Poway, Calif.) that detected free movement of animals by infrared photocell interruptions. This equipment used an infrared photocell grid (32 emitter/detector pairs) to measure locomotor activity. The chambers were converted into round (˜40 cm diameter) compartments by adding clear Plexiglas inserts; photocell emitter/detector pairs were tuned by the manufacturer to handle the extra perspex width. Circular chambers increase the sensitivity to detect locomotor activity (Harrod et al., 2006). All activity monitors were located in an isolated room.
Intra-accumbal Tat microinjection: All rats received intra-accumbal Tat or vehicle (VEH; physiological saline) injections approximately 24 hours after the saline baseline activity session and then received subsequent IV injections of cocaine (3.0 mg/kg/injection) or saline according to a 2×2, protein×drug, design. […] Tat was therefore administered to the core region of the N Acc to determine if the sensitization process was disrupted. Rats were administered intra-accumbal Tat or VEH injections according to methods previously described (Bansal et al., 2000; Aksenov et al., 2003). Briefly, rats were anesthetized using a mixture of ketamine hydrochloride and xylazine by intraperatoneal (IP) injection (7.5 mg ketamine/100 gb.wt. […].). 15 μg/l of Tat was injected bilaterally, using a silanized Hamilton Syringe at the following coordinates: 1.8 mm anterior, ±1.6 mm lateral, and 7.0 mm ventral from bregma on the skull surface, over an interval of one minute, with a one minute tissue recovery period before withdrawal.
IV cocaine-induced locomotor activity: Twenty-four hours after rats received bilateral intra-accumbal injections, IV cocaine or saline was administered. The animals were immediately placed into locomotor activity chambers following cocaine or saline. The animals' locomotor activity response to cocaine was assessed for 30 minutes on only two occasions: immediately after the first (Day 1) and last (Day 14) cocaine injections; however, rats were administered daily IV cocaine or saline injections in the home cage on days 2-13. […]

human fetal neurons = details: human fetal neuronal cultures, Turchan et al. 2001; cited from earlier work

## COC(=O)[C@H]1[C@@H](OC(=O)c2ccccc2)C[C@@H]2CC[C@H]1N2C.Cl [cocaine, Cocaine hydrochloride]
[1]; 14 days
  total activity, repeated IV cocaine: induced behavioral sensitization of total activity
[1]; 10 minute
  mean total activity (±SEM): 2363.0 (±120.0)
  mean TIC (time in center): 116.6 (±12.4) seconds
  TIC, acute (Day 1): 72.1 (±15.0) seconds
[1]; 20 minute
  mean total activity (±SEM): 1660.6 (±103.8)
  mean TIC (time in center): 152.3 (±20.1) seconds
  TIC, acute (Day 1): 100.2 (±19.0) seconds
[1]; 30 minute
  mean total activity (±SEM): 1494.01 (±66.5)
  mean TIC (time in center): 160.3 (±19.6) seconds
  TIC, acute (Day 1): 108.9 (±24.4) seconds
[1]; rat, in vivo
  total activity, acute cocaine (Day 1): did not increase total activity
[1]; repeated (day 14) cocaine
  locomotor composite incidence scores, VEH-COC vs VEH-SAL: significantly higher locomotor composite incidence scores
Human fetal neurons
  cocaine level not neurotoxic (prior work): ≤ 16 µM
